Columns and labels:
[1] = test system: 9/13-Divinylethersynthase aus Knoblauch; assay: Photometric determination of the substrate specificity of 9/13-DES; type: biochemical; details: purified 9/13-DES; 100 µM hydroperoxide; room temperature; decrease of extinction at 234 or 236 nm over one minute
Description: Für die Bestimmung der Substratspezifität wurde die 9/13-Divinylethersynthase aus Knoblauch aus einer Expressionskultur aufgereinigt. Dazu wurde zunächst eine 400 ml Expressionskultur unter den schon vorher beschriebenen Bedingungen angeimpft und angezogen. Die Zellen wurden nach zweitägiger Inkubation durch 15-minütige Zentrifugation mit 4000 g bei 4°C sedimentiert. Das Sediment wurde in 20 ml 50 mM Na-Phosphat, pH 8, resuspendiert und mit Ultraschall (Sonopuls GM 70, Bandelin, Berlin) für 5-Mal eine Minute bei 50 % Leistung und 50 % Impuls aufgeschlossen. Die Zelltrümmer wurden 15 min bei 4000 x g sedimentiert und aus dem Überstand wurden durch eine weitere Zentrifugation (1 h bei 100000 x g) die Zellmembranen sedimentiert. Das Membransediment wurde für 1 h in 50 mM Na-Phosphat, pH 8, mit 1M NaCl und 0,1 % (v/v) TritonX-100 inkubiert, um die Membranproteine zu solubilisieren. Anschließend wurde erneut 1 h bei 100000 x g zentrifugiert. Der Überstand wurde mit Talon Metal Affinity Resin (Clontech, Palo Alto, USA) (200 µl Bettvolumen) über Nacht bei 4 °C geschüttelt. Danach wurde das Material auf eine Leersäule (T.J. Baker, Phillipsburg, N.J., USA) gegeben. Die Elution erfolgte mit 3 ml 50 mM Tris/HCl pH 6,3, 10 % Glycerin, 0,1 % Tween 20, 0,5 M NaCl und 0,1 M EDTA. Durch eine PD-10 Säule (Amersham pharmacia biotech, UK) wurde das Protein in 50 mM Na-Phosphat-Puffer pH 8 umgepuffert.
Das so aufgereinigte Protein wurde für die Tests im Photometer eingesetzt. Die Messungen erfolgten bei Raumtemperatur und es wurde immer bei der Wellenlänge des eingesetzten Hydroperoxids (234 bzw. 236 nm) bei einer Konzentration 100 µM für eine Minute die Abnahme der Extinktion aufgezeichnet. Die Messungen erfolgten in einer 100 µl Quarzküvette. Die Reaktion wurde durch die Zugaben von 1 µl der Proteinlösung gestartet.

[2] = test system: 9/13-DES; assay: Determination of the pH optimum of 9/13-DES (endpoint determination by normal-phase and reversed-phase HPLC); type: biochemical, Knoblauch; details: substrate of recombinant 9/13-DES; pH 5,5 bis 8,6; no pH optimum could be determined
Description: Das pH-Optimum wurde mittels einer Endpunktbestimmung mit Hilfe der Normal-Phasen-HPLC und der Umkehr-Phasen-HPLC ermittelt. Es wurden sowohl 9-HPOD als auch 13-HPOD als Substrate der DES verwendet. Für die Bestimmung des pH-Optimums wurde die Umsetzung bei pH-Werten von 4,5 bis 8,5 in Schritten von 0,5 pH-Einheiten durchgeführt. Für pH 7 wurden zweimal drei Messungen durchgeführt, da für diesen pH-Wert sowohl ein 50 mM Natrium-Phosphatpuffer als auch ein 50 mM Tris/HCl-Puffer verwendet wurde. Für die Umsetzungen wurden zwischen 25 und 80 nmol der Hydroperoxide eingesetzt. Von dem einzelnen Hydroperoxid wurde dabei immer die gleiche Menge für jede Umsetzung eingesetzt. Parallel zu den Proben für den pH-Optimumstest wurden drei Ansätze mit Zelllysat des leeren Vektors in E. coli mit 13-HPOD inkubiert. Die Leervektorkontrolle zeigte keine Divinylether-Bildung, es konnte nur das Hydroperoxid nachgewiesen werden.

Question: CC/C=C\C[C@@H](/C=C/C=C\CCCCCCCC(=O)O)OO [13-HPOT, (9Z, 11E, 13S, 15Z)-13-Hydroperoxy-9,11,15-Octadecatriensäure] was tested. Which “Substratspezifität (Umsetzung durch 9/13-DES)” value (“Substratspezifität” for short) [1] did it give?
Answer: The value was “wesentlich weniger stark umgesetzt”.

Question: Which “Substratspezifität” value [1] does the source give for CCCCC[C@@H](/C=C/C=C\CCCCCCCC(=O)O)OO [13-HPOD, (13S, 9Z, 11E)-13-Hydroperoxy-9,11-Octadecadiensäure] here?
Answer: The value was “bevorzugt”.

Question: With CC/C=C\C/C=C\C=C\[C@H](CCCCCCCC(=O)O)OO [9-HPOT, (9S, 10E, 12Z, 15Z)-9-Hydroperoxy-10,12,15-Octadecatriensäure] as the compound, how does the “Substratspezifität” value [1] read?
Answer: Its value is “wesentlich weniger stark umgesetzt”.

Question: CCCCC/C=C\C=C\[C@H](CCCCCCCC(=O)O)OO [9-HPOD, (9S, 10E, 12Z)-9-Hydroperoxy-10,12-Octadecadiensäure] was tested. Which “Umsetzung über den pH-Bereich” value [2] did it give?
Answer: The value was “gleich gut umgesetzt”.

Question: What about the “Substratspezifität” value [1] of the same compound?
Answer: The value was “in etwas geringerem Maße”.
